In patent US11952377B2, “Quinolines and azaquinolines as inhibitors of CD38” (BOEHRINGER INGELHEIM INTERNATIONAL GMBH, priority 2021, dated 2024):

biological target: Human CD38 (Homo sapiens (Human), UniProt P28907); assay: CD38 enzyme assay; assay type: biochemical; details: 2 nM CD38, 30 min preincubation at 25° C., absorbance at 405 nm after 60 minutes
Excerpt: [formula] where CMPD is the value for the individual compound treated well, MIN is the average of the values of the 4-(((1r,4r)-4-(2-methoxyethoxy)cyclohexyl)amino)-1-methyl-6-(thiazol-5-yl)quinolin-2(1H)-one positive control wells and MAX is the average of the values of the DMSO negative control wells.
The % inhibition values were plotted as a function of compound concentration and the following 4-parameter fit was applied to derive the IC50 values:
[formula] where top and bottom are normally allowed to float, but may be fixed at 100 or 0 respectively in a 3-parameter fit. The Hill Coefficient is normally allowed to float but may also be fixed at 1 in a 3-parameter fit. Y is the % inhibition and X is the compound concentration.

Human CD38, sequence (P28907 whole entry): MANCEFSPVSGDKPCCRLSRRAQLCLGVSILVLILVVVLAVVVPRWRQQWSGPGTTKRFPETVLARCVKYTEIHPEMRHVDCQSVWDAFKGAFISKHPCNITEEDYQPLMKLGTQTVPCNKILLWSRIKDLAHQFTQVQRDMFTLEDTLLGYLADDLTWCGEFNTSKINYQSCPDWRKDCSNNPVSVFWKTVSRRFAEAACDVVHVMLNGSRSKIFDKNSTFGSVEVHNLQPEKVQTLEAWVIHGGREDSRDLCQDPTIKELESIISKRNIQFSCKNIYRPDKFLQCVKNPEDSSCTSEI

| IC50 [nM] | Compound |
| --- | --- |
| 10 to 100 | COCCO[C@H]1CC[C@H](Nc2cc(=O)n(C)c3ccc(-n4ccnc4)cc23)CC1 [Example 1, 6-(1H-imidazol-1-yl)-4-(((1r,4r)-4-(2-methoxyethoxy)cyclohexyl)amino)-1-methylquinolin-2(1H)-one] |
| 10 to 100 | Cn1c(=O)cc(N[C@H]2CC[C@H](NC3COC3)CC2)c2cc(-n3ccnc3)ccc21 [Example 2, 6-(1H-imidazol-1-yl)-1-methyl-4-(((1r,4r)-4-(oxetan-3-ylamino)cyclohexyl)amino)quinolin-2(1H)-one] |
| 10 to 100 | COCCO[C@H]1CC[C@H](Nc2cc(=O)n(C)c3ccc(-n4ccnc4)nc23)CC1 [Example 3, 6-(1H-imidazol-1-yl)-4-(((1r,4r)-4-(2-methoxyethoxy)cyclohexyl)amino)-1-methyl-1,5-naphthyridin-2(1H)-one] |
| 10 to 100 | Cn1c(=O)cc(N[C@H]2CC[C@H](C(C)(C)O)CC2)c2nc(-n3ccnc3)ccc21 [Example 4, 4-(((1r,4r)-4-(2-hydroxypropan-2-yl)cyclohexyl)amino)-6-(1H-imidazol-1-yl)-1-methyl-1,5-naphthyridin-2(1H)-one] |
| 10 to 100 | Cn1c(=O)cc(N[C@H]2CC[C@H](C(C)(C)O)CC2)c2cc(-n3ccnc3)ncc21 [Example 5, 4-(((1r,4r)-4-(2-hydroxypropan-2-yl)cyclohexyl)amino)-6-(1H-imidazol-1-yl)-1-methyl-1,7-naphthyridin-2(1H)-one] |
| 10 to 100 | COCCO[C@H]1CC[C@H](Nc2cc(=O)n(C)c3cnc(-n4ccnc4)cc23)CC1 [Example 6, 6-(1H-imidazol-1-yl)-4-(((1r,4r)-4-(2-methoxyethoxy)cyclohexyl)amino)-1-methyl-1,7-naphthyridin-2(1H)-one] |
| 10 to 100 | COCCO[C@H]1CC[C@H](Nc2cc(=O)n(C)c3cnc(-n4ccnc4)nc23)CC1 [Example 7, 2-(1H-imidazol-1-yl)-8-(((1r,4r)-4-(2-methoxyethoxy)cyclohexyl)amino)-5-methylpyrido[3,2-d]pyrimidin-6(5H)-one] |
| < 10 | Cn1c(=O)cc(N[C@H]2CC[C@H](C(C)(C)O)CC2)c2nc(-n3ccnc3)ncc21 [Example 8, 8-(((1r,4r)-4-(2-hydroxypropan-2-yl)cyclohexyl)amino)-2-(1H-imidazol-1-yl)-5-methylpyrido[3,2-d]pyrimidin-6(5H)-one] |
| < 10 | Cn1c(=O)cc(Nc2ccc(C(F)(F)F)cc2)c2nc(-n3ccnc3)ncc21 [Example 9, 2-(1H-imidazol-1-yl)-5-methyl-8-((4-(trifluoromethyl)phenyl)amino)pyrido[3,2-d]pyrimidin-6(5H)-one] |
| 10 to 100 | Cn1c(=O)cc(Nc2ccc(OCCN3CCOCC3)nc2)c2nc(-n3ccnc3)ncc21 [Example 10, 2-(1H-imidazol-1-yl)-5-methyl-8-((6-(2-morpholinoethoxy)pyridin-3-yl)amino)pyrido[3,2-d]pyrimidin-6(5H)-one] |
| 10 to 100 | Cn1c(=O)cc(N[C@H]2CC[C@H](NCC(F)(F)F)CC2)c2cc(-n3ccnc3)ccc21 [Example 11, 6-(1H-imidazol-1-yl)-1-methyl-4-(((1r,4r)-4-((2,2,2-trifluoroethyl)amino)cyclohexyl)amino)quinolin-2(1H)-one] |
| 10 to 100 | Cn1c(=O)cc(N[C@H]2CC[C@H](C(C)(C)O)CC2)c2cc(-n3ccnc3)ccc21 [Example 12, 4-(((1r,4r)-4-(2-hydroxypropan-2-yl)cyclohexyl)amino)-6-(1H-imidazol-1-yl)-1-methylquinolin-2(1H)-one] |
| 10 to 100 | Cn1c(=O)cc(NC2CCN(S(C)(=O)=O)CC2)c2cc(-n3ccnc3)ccc21 [Example 13] |
| 10 to 100 | CN(C)C(=O)CO[C@H]1CC[C@H](Nc2cc(=O)n(C)c3ccc(-n4ccnc4)cc23)CC1 [Example 14, 2-(((1r,4r)-4-((6-(1H-imidazol-1-yl)-1-methyl-2-oxo-1,2-dihydroquinolin-4-yl)amino)cyclohexyl)oxy)-N,N-dimethylacetamide] |
| 10 to 100 | Cn1c(=O)cc(Nc2ccc(OCC(F)(F)F)nc2)c2cc(-n3ccnc3)ccc21 [Example 15, 6-(1H-imidazol-1-yl)-1-methyl-4-((6-(2,2,2-trifluoroethoxy)pyridin-3-yl)amino)quinolin-2(1H)-one] |
| 10 to 100 | CN(C)CCOc1ccc(Nc2cc(=O)n(C)c3ccc(-n4ccnc4)cc23)cn1 [Example 17, 4-((6-(2-(dimethylamino)ethoxy)pyridin-3-yl)amino)-6-(1H-imidazol-1-yl)-1-methylquinolin-2(1H)-one] |
| 10 to 100 | Cn1c(=O)cc(N[C@H]2CC[C@H](OCCN3CCCC3)CC2)c2cc(-n3ccnc3)ccc21 [Example 18, 6-(1H-imidazol-1-yl)-1-methyl-4-(((1r,4r)-4-(2-(pyrrolidin-1-yl)ethoxy)cyclohexyl)amino)quinolin-2(1H)-one] |
| < 10 | Cn1c(=O)cc(N[C@H]2CC[C@H](NCC(C)(F)F)CC2)c2nc(-n3ccnc3)ncc21 [Example 19, 8-(((1r,4r)-4-((2,2-difluoropropyl)amino)cyclohexyl)amino)-2-(1H-imidazol-1-yl)-5-methylpyrido[3,2-d]pyrimidin-6(5H)-one] |
| 10 to 100 | CN(C)C(=O)CO[C@H]1CC[C@H](Nc2cc(=O)n(C)c3cnc(-n4ccnc4)nc23)CC1 [Example 21, 2-(((1r,4r)-4-((2-(1H-imidazol-1-yl)-5-methyl-6-oxo-5,6-dihydropyrido[3,2-d]pyrimidin-8-yl)amino)cyclohexyl)oxy)-N,N-dimethylacetamide] |
| < 10 | Cn1c(=O)cc(Nc2ccc(C#N)cc2)c2nc(-n3ccnc3)ncc21 [Example 22, 4-((2-(1H-imidazol-1-yl)-5-methyl-6-oxo-5,6-dihydropyrido[3,2-d]pyrimidin-8-yl)amino)benzonitrile] |
| < 10 | Cn1c(=O)cc(N[C@H]2CC[C@H](NCC(F)(F)F)CC2)c2nc(-n3ccnc3)ncc21 [Example 23, 2-(1H-imidazol-1-yl)-5-methyl-8-(((1r,4r)-4-((2,2,2-trifluoroethyl)amino)cyclohexyl)amino)pyrido[3,2-d]pyrimidin-6(5H)-one] |
| < 10 | CO[C@H]1CC[C@H](Nc2cc(=O)n(C)c3cnc(-n4ccnc4)nc23)CC1 [Example 24, 2-(1H-imidazol-1-yl)-8-(((1r,4r)-4-methoxycyclohexyl)amino)-5-methylpyrido[3,2-d]pyrimidin-6(5H)-one] |
| 10 to 100 | Cn1c(=O)cc(Nc2ccc(OCCN3CCCC3)nc2)c2nc(-n3ccnc3)ncc21 [Example 25] |
| < 10 | Cn1c(=O)cc(NC2CCC(F)(F)CC2)c2nc(-n3ccnc3)ncc21 [Example 26, 8-((4,4-difluorocyclohexyl)amino)-2-(1H-imidazol-1-yl)-5-methylpyrido[3,2-d]pyrimidin-6(5H)-one] |
| < 10 | Cn1c(=O)cc(N[C@H]2CC[C@H](C3(O)CC3)CC2)c2nc(-n3ccnc3)ncc21 [Example 27, 8-(((1r,4r)-4-(1-hydroxycyclopropyl)cyclohexyl)amino)-2-(1H-imidazol-1-yl)-5-methylpyrido[3,2-d]pyrimidin-6(5H)-one] |
